US4603121A, “Enkephalin analogs” (G. D. Searle & Co., priority 1984, dated 1986)

Experiments:
[1] = system: PBQ-induced writhing in mice; test: PBQ-Writhing assay; type: in vivo; conditions: male mice, subcutaneous, ED50 from number of animals protected compared to saline controls
Experimental: PBQ-Writhing assay. Groups of 10 male mice weighing 20 to 35 grams are used for each dose and for the vehicle control. Writhing is induced 30 or 60 minutes following drug or drug vehicle administration by the intraperitoneal injection of a 0.025 percent solution of PBQ and 5 percent ethanol. The number of separate writhing motions occurring in a ten minute period starting 5 minutes following the PBQ challenge is counted for each mouse. A positive antinociceptive affect is assured when an individual animals' writhing frequency is less than or equal to 50 percent of the vehicle control group median frequency. ED50 values based on the number of positive responders per dose group is determined using the method of Litchfield and Wilcoxon. M. R. Fennessy et al. The Assessment of and Problems Involved in the Experimental Evaluation of Narcotic Analgesics. In Methods in Narcotics Research, Marcel Dekker, Inc., New York, 1975. H. Bomberg et al. Use of Writhing Test for Evaluating Analgesic Activity of Narcotic Analgesics, Proc. Soc. Ext. Biol. Med. 118: 763-766, 1965.
The compounds of the invention were evaluated with respect to analgesic activity utilizing the test procedures described previously. Set forth in Table I below are the test results in the writhing assay for certain preferred compounds of the invention within formula I. The data summarized represents the ED50 calculated on the basis of the number of animals protected at a dose of 10 mg/Kg of the active test compound compared to saline controls.

[2] = system: brain opiate receptor sites; conditions: partially purified brain opiate receptor sites; cited from earlier work
opiate activity = conditions: cited from earlier work
rat = conditions: injected directly into the brain of the rat; cited from earlier work

Compound | Activity (ED50 mg/Kg - Administered Subcutaneously) [1] [mg/kg] | binding to opiate receptor sites [2] | activity in bioassays for opiate activity (opiate activity) | analgesic activity (rat)
CSCC[C@@H](NC(=O)[C@@H](N)Cc1c(C)cc(O)cc1C)C(=O)NCC(=O)N[C@@H](CC1CCCCC1)C(=O)NCCCCCC(=O)O.Cl [Example 127, 2,6-dimethyl-L-tyrosyl-D-methionylglycyl-N-(5-carboxypentyl)-3-cyclohexyl-L-alaninamide, monohydrochloride] | 0.09 |  |  | 
methionine enkephalin |  | binds stereospecifically | highly active | weak, fleeting analgesic activity
COC(=O)CCCCCNC(=O)[C@H](CC1CCCCC1)N(C)C(=O)CNC(=O)[C@@H](CCSC)NC(=O)[C@@H](N)Cc1c(C)cc(O)cc1C.Cl [Example 43, 2,6-dimethyl-L-tyrosyl-D-methionylglycyl-N-(6-methoxy-6-oxohexyl)-3-cyclohexyl-N^α -methyl-L-alaninamide monohydrochloride] | 0.20 |  |  | 
2,6-dimethyltyrosyl-D-norleucylglycyl-3-cyclohexyl-N-(6-methoxy-6-oxohexyl)-L-alaninamide, monohydrochloride(diastereomer-D) [Example 104] | 0.20 |  |  | 
